This note sets out measurements from ChEMBL document CHEMBL3132861 (Medchemcomm, 2013).

The nature of test [1]: Antiproliferative activity against human MDA-MB-435 cells by SRB assay. (In general: The SRB assay estimates cell density from bound dye.)
Test [2] in a line: Inhibition of microtubule depolymerization in rat A10 cells after 18 hrs by immunofluorescence assay. In kind it is cell-based.
A further test relates to A10. As to the kind of experiment: Inhibition of microtubule depolymerization in rat A10 cells at 75 uM after 18 hrs by immunofluorescence assay. In kind it is cell-based.

Structures are written as SMILES. Where only a bound is given, the exact number is not on record here.

As a reminder, the IC50 is the concentration that inhibits the measured activity by half. A lower IC50 goes with higher potency. One may read the EC50 as the concentration giving half of the maximal effect. For orientation: pEC50 means the negative decadic logarithm of the EC50, by convention in mol/L. Higher therefore signals a low EC50. Turning to `CCOC(=O)c1[nH]c(Br)c(-c2c[nH]c3ccccc23)c1Br`, the IC50 in test [1] was found to be 1.98 µM. In test [2], the EC50 is 17.8 µM and the pEC50 came out at 4.75.

In test [2], `CCOC(=O)c1[nH]c(Br)c(-c2ccc3c(c2)OCO3)c1Br` returned an EC50 of 29.7 µM and a pEC50 of 4.53.

In turn, `CCOC(=O)c1[nH]c(Br)c(-c2ccc(C)cc2)c1Br` displayed an IC50 in test [1] of 2.24 µM. In test [2], this molecule showed an EC50 above 75 µM and a pEC50 of 3.82.

In test [2], `CCOC(=O)c1[nH]c(Br)c(-c2ccc(SC)cc2)c1Br` came in with an EC50 of 18.5 µM and a pEC50 of 4.73.

Molecule `CCOC(=O)c1[nH]c(Br)c(-c2cc(OC)c(OC)c(OC)c2)c1Br` showed an IC50 in test [1] of 12.9 µM. For the same molecule, in test [2], the half-maximal effective concentration (EC50) was above 75 µM and the pEC50 turned out to be 3.82.

Take `CCOC(=O)c1[nH]c(Br)c(-c2cc(OC)c(OC)cc2Br)c1Br`: in test [1], the IC50 amounted to 2.64 µM. Moreover, in test [2], a half-maximal response (EC50) required 14 µM and the pEC50 came to 4.85.

By inhibition is commonly meant the share of the control response that was lost under treatment. The low end stands for a weak effect, the high end for a strong effect. Take `CCOC(=O)c1[nH]c(Br)c(-c2ccc(Br)cc2)c1Br`: the inhibition in the test with A10 was found to be 40%. For the same molecule, in test [2], a half-maximal response (EC50) required 94 µM and the pEC50 was determined as 4.03.

In test [1], `CCOC(=O)c1[nH]c(Br)c(-c2cccc3ccccc23)c1Br` registered an IC50 of 3.24 µM. In test [2], this molecule came in with an EC50 of 7 µM and a pEC50 of 5.15.

With `CCOC(=O)c1[nH]c(Br)c(-c2ccc(OC)cc2)c1Br`, in test [2], a half-maximal effect (EC50) was put at 7 µM and the pEC50 was determined as 5.15.

In test [1], `CCOC(=O)c1[nH]c(Br)c(-c2ccc3cc(OCC)ccc3c2)c1Br` gave an IC50 of 1.99 µM. In test [2], this molecule yielded an EC50 above 75 µM and a pEC50 of 3.82.

In test [2], `CCOC(=O)c1[nH]c(Br)c(-c2ccc(Cl)cc2)c1Br` showed a concentration giving a half-maximal response (EC50) above 75 µM and a pEC50 of 3.82.

The molecule `CCOC(=O)c1[nH]c(Br)c(-c2ccccc2)c1Br` yielded an IC50 in test [1] of 10.3 µM. In test [2], this molecule came in with an EC50 above 75 µM and a pEC50 of 3.82.

In test [2], `CCOC(=O)c1[nH]c(Br)c(-c2ccc(Cl)c(Cl)c2)c1Br` showed an EC50 of 9.9 µM and a pEC50 of 5.

As for `CCOC(=O)c1[nH]c(Br)c(-c2ccc(OC)c(F)c2)c1Br`, in test [2], it took 14.1 µM to reach a half-maximal effect (EC50) and the pEC50 is on record as 4.85.

For `CCOC(=O)c1[nH]c(Br)c(-c2ccc3c(c2)OCCO3)c1Br`, in test [1], 4.36 µM corresponded to half-maximal inhibition (IC50). In test [2], the EC50 stood at 20.9 µM and the pEC50 is 4.68.

Consider `CCOC(=O)c1[nH]c(Br)c(-c2cccc(OC)c2)c1Br`, for which, in test [2], it took 2.4 µM to reach a half-maximal effect (EC50) and the pEC50 is reported as 5.62.

In the case of `CCOC(=O)c1[nH]c(Br)c(-c2ccc(OC(F)(F)F)cc2)c1Br`, in test [2], the EC50 worked out at 27.1 µM and the pEC50 is given as 4.57.
